According to patent US20260157378A1, “PROCESS FOR THE PREPARATION OF COMPOSITIONS BASED ON AMINO ACIDS AND PEPTIDES OF ANIMAL ORIGIN AND IODINE, COMPOSITIONS THUS OBTAINED AND USE THEREOF” (SICIT GROUP S.P.A., priority 2022, published 2026):

What was measured:
[1] = test system: lettuce plants (Lactuca sativa L.) var. Sant'Anna; experiment: Application of the iodine formulation by root application (hydroponic nutritive solution), iodine content by optical emission spectrometry; type: in vivo; settings: 36 μg I/L of nutritive solution, harvested after 15 days, lettuce aerial part
Experimental: (§1) The seeds of the selected species were germinated within germination trays filled with a growth substrate composed by vernalized black peat and blond sphagnum peat (Agrofino Professional) and placed in a growth chamber.
(§2) The germinated seedlings were grown until the 2nd real leaf stage. Later, the growth substrate portion wherein the roots were confined was extracted and a gentle washing was carried out in order to remove the whole substrate and thus obtain a free root seedling ready to be placed in hydroponics, for the test of root application. The plants were transplanted in 0.35 L pots for the foliar application test.
The plants were grown in recipients containing 5 L of nutritive solution added with iodine salts obtained according to Example 1, or with the nutritive solution added with the formulation object of the patent. In both treatments, the applied iodine amount was the same: 36 μg I/L of nutritive solution. The plants were then grown in controlled conditions in a growth chamber: • 07.00-12.00: T 24° C., RH 60%, Light Int. 300 μmol/m^2/s; • 12.00-16.00: T 25° C., RH 60%, Light Int. 400 μmol/m^2/s; • 16.00-20.00: T 24° C., RH 60%, Light Int. 300 μmol/m^2/s; • 20.00-07.00: T 23° C., RH 60%, Light Int. 0 μmol/m^2/s.
After 15 days the plants were harvested and the aerial part was weighted. Each plant was washed with deionized water and dried in oven at 105° C. overnight. […]

[2] = test system: lettuce plants (Lactuca sativa L.) var. Sant'Anna; experiment: Application of the iodine formulation by foliar application (foliar spray), iodine content by optical emission spectrometry; type: in vivo; settings: foliar spray at transplantation and after 7 days, 30 μg iodine/plant, harvested after 15 days, lettuce aerial part
Experimental: as §1, §2
The plants were grown for 15 days in 0.35 L pots, containing universal topsoil based on vernalized black peat and blond sphagnum, in controlled conditions in a growth chamber: • 07.00-12.00: T 24° C., RH (Relative humidity) 60%, Light Int. 300 μmol/m^2/s; • 12.00-16.00: T 25° C., RH 60%, Light Int. 400 μmol/m^2/s; • 16.00-20.00: T 24° C., RH r 60%, Light Int. 300 μmol/m^2/s; • 20.00-07.00: T 23° C., RH 60%, Light Int. 0 μmol/m^2/s.
The formulations (iodine salts and formulation object of the invention) were applied during transplantation and after 7 days, by foliar spray, delivering 5 ml of applicative solution according to Example 1 to each plant. In both treatments, the applied iodine amount was the same: 30 μg/plant. […]

[I-].[K+] [KI salt, potassium iodide]
iodine absorption efficiency [1]: 46% | iodine content in the food [1]: 55 μg/100 g fresh weight | iodine absorption efficiency [2]: 40% | iodine content in the food [2]: 36 μg/100 g fresh weight
